{"source": "patent US20180110754A1", "about": "“CENICRIVIROC FOR THE TREATMENT OF FIBROSIS” (Tobira Therapeutics, Inc., priority 2015, published 2018)", "system": "STAM mouse model of Non-alcoholic Steatohepatitis", "experiment": "STAM mouse model of NASH, week 9 (anti-NASH/fibrosis effects)", "format": "in vivo", "description": "NASH was induced in male mice by a single injection of 200 μg streptozotocin 2 days after birth (causing impaired glucose control), followed by a high fat diet from 4 weeks of age. […] Animals were sacrificed at 9 weeks of age, and biochemical, gene expression, and histologic evaluations of the liver were conducted.", "key": {"[1]": {"conditions": "CVC-high 100 mg/kg/day, week 9, listed as Cenicriviroc"}}, "note": "Where “and” joins values, the source holds several entries; their conditions need not be identical. Identical values can stand only once."}
{"smiles": "CCCCOCCOc1ccc(-c2ccc3c(c2)/C=C(/C(=O)Nc2ccc([S@@+]([O-])Cc4cncn4CCC)cc2)CCCN3CC(C)C)cc1", "note": "[CVC, (S)-8-[4-(2-Butoxyethoxy)phenyl]-1-isobutyl-N-(4-{[(1-propyl-1H-imidazol-5-yl)methyl]sulfinyl}phenyl)-1,2,3,4-tetrahydro-1-benzazocine-5-carboxamide]", "values": [{"measurement": "Effect on body or liver weight, whole blood glucose, or liver triglycerides", "setting": "20 and 100 mg/kg/day, week 9", "result": "no effect"}, {"measurement": "Decrease of collagen type 1 mRNA in whole liver lysates (real-time RT-PCR)", "setting": "CVC 20 and 100 mg/kg/day, week 9", "result": "27-37%"}, {"measurement": "Body weight", "setting": "CVC-high 100 mg/kg/day, week 9", "result": "18.7 ± 0.9", "unit": "g"}, {"measurement": "F4/80-positive area (inflammation area)", "setting": "CVC-high 100 mg/kg/day, week 9", "result": "4.96±0.60", "unit": "%"}, {"measurement": "F4/80 and CD16/32-positive cells", "setting": "CVC-high 100 mg/kg/day, week 9", "result": "41.5±8.2", "unit": "%"}, {"measurement": "F4/80 and CD206-positive cells", "setting": "CVC-high 100 mg/kg/day, week 9", "result": "33.1±3.0", "unit": "%"}, {"measurement": "Liver hydroxyproline", "setting": "CVC-high 100 mg/kg/day, week 9", "result": "0.62±0.09", "unit": "μg/mg total protein"}, {"measurement": "Liver triglyceride", "setting": "CVC-high 100 mg/kg/day, week 9", "result": "51.7±14.1", "unit": "mg/g liver"}, {"measurement": "Liver weight", "setting": "CVC-high 100 mg/kg/day, week 9", "result": "1307 ± 119", "unit": "mg"}, {"measurement": "NAFLD Activity Score (NAS)", "setting": "CVC-high 100 mg/kg/day, week 9", "result": "3.7±0.8"}, {"measurement": "Oil red-positive area (fat deposition area)", "setting": "CVC-high 100 mg/kg/day, week 9", "result": "7.23±3.59", "unit": "%"}, {"measurement": "Plasma ALT", "setting": "CVC-high 100 mg/kg/day, week 9", "result": "51±13 U/L and 52±13 U/L"}, {"measurement": "Plasma MCP-1", "setting": "CVC-high 100 mg/kg/day, week 9", "result": "91 ± 14", "unit": "pg/mL"}, {"measurement": "Plasma MIP-1β", "setting": "CVC-high 100 mg/kg/day, week 9", "result": "20 ± 4", "unit": "pg/mL"}, {"measurement": "TUNEL-positive cells", "setting": "CVC-high 100 mg/kg/day, week 9", "result": "39.0±5.3", "unit": "%"}, {"measurement": "Whole blood glucose", "setting": "CVC-high 100 mg/kg/day, week 9", "result": "585 ± 91", "unit": "mg/dL"}, {"measurement": "Body weight", "setting": "[1]", "result": "18.7 ± 0.9", "unit": "g"}, {"measurement": "F4/80-positive area (inflammation area)", "setting": "[1]", "result": "4.96 ± 0.60", "unit": "%"}, {"measurement": "F4/80 and CD16/32-positive cells", "setting": "[1]", "result": "41.5 ± 8.2", "unit": "%"}, {"measurement": "F4/80 and CD206-positive cells", "setting": "[1]", "result": "33.1 ± 3.0", "unit": "%"}, {"measurement": "Liver hydroxyproline", "setting": "[1]", "result": "0.62 ± 0.09", "unit": "μg/mg total protein"}, {"measurement": "Liver triglyceride", "setting": "[1]", "result": "51.7 ± 14.1", "unit": "mg/g liver"}, {"measurement": "Liver weight", "setting": "[1]", "result": "1307 ± 119", "unit": "mg"}, {"measurement": "NAFLD Activity Score (NAS)", "setting": "[1]", "result": "3.7 ± 0.8"}, {"measurement": "Oil red-positive area (fat deposition area)", "setting": "[1]", "result": "7.23 ± 3.59", "unit": "%"}, {"measurement": "Plasma ALT", "setting": "[1]", "result": "52 ± 13", "unit": "U/L"}, {"measurement": "Plasma MCP-1", "setting": "[1]", "result": "91 ± 14", "unit": "pg/mL"}, {"measurement": "Plasma MIP-1β", "setting": "[1]", "result": "20 ± 4", "unit": "pg/mL"}, {"measurement": "TUNEL-positive cells", "setting": "[1]", "result": "39.0 ± 5.3", "unit": "%"}, {"measurement": "Whole blood glucose", "setting": "[1]", "result": "585 ± 91", "unit": "mg/dL"}, {"measurement": "Sirius red-positive area (fibrosis area)", "setting": "CVC-high 100 mg/kg/day, week 9, perivascular space included, listed as Cenicriviroc", "result": "0.64 ± 0.19", "unit": "%"}, {"measurement": "Modified Sirius red-positive area", "setting": "CVC-high 100 mg/kg/day, week 9, perivascular space subtracted, listed as Cenicriviroc", "result": "0.20 ± 0.06", "unit": "%"}, {"measurement": "Modified positive area (%), per mouse", "setting": "CVC-high, Sirius red, mice 301-306 (raw data), listed as Cenicriviroc", "result": "0.12% and 0.26% and 0.17% and 0.27% and 0.18% and 0.20%"}, {"measurement": "Modified positive area (%), individual photo", "setting": "CVC-high, Sirius red, mice 301-306, photos 1-5 (raw data), listed as Cenicriviroc", "result": "0.17% (2×) and 0.28% (2×) and 0.22% (2×) and 0.08% (3×) and 0.05% and 0.09% (2×) and 0.32% and 0.07% (3×) and 0.16% and 0.20% (2×) and 0.68% and 0.23% (2×) and 0.27% and 0.12% and 0.11% and 0.67% and 0.26% and 0.06% and 0.10% and 0.41%"}, {"measurement": "Number of animals with Hepatocyte ballooning score 0", "setting": "CVC-high, week 9, n=6", "result": 1}, {"measurement": "Number of animals with Hepatocyte ballooning score 1", "setting": "CVC-high, week 9, n=6", "result": 2}, {"measurement": "Number of animals with Hepatocyte ballooning score 2", "setting": "CVC-high, week 9, n=6", "result": 3}, {"measurement": "Number of animals with Lobular inflammation score 1", "setting": "CVC-high, week 9, n=6", "result": 3}, {"measurement": "Number of animals with Lobular inflammation score 2", "setting": "CVC-high, week 9, n=6", "result": 3}, {"measurement": "Number of animals with Steatosis score 1", "setting": "CVC-high, week 9, n=6", "result": 5}, {"measurement": "Body weight", "setting": "CVC-low 20 mg/kg/day, week 9", "result": "19.5 ± 2.0", "unit": "g"}, {"measurement": "F4/80-positive area (inflammation area)", "setting": "CVC-low 20 mg/kg/day, week 9", "result": "4.77±1.02", "unit": "%"}, {"measurement": "F4/80 and CD16/32-positive cells", "setting": "CVC-low 20 mg/kg/day, week 9", "result": "38.7±7.6", "unit": "%"}, {"measurement": "F4/80 and CD206-positive cells", "setting": "CVC-low 20 mg/kg/day, week 9", "result": "34.7±6.3", "unit": "%"}, {"measurement": "Liver hydroxyproline", "setting": "CVC-low 20 mg/kg/day, week 9", "result": "0.63±0.05", "unit": "μg/mg total protein"}, {"measurement": "Liver triglyceride", "setting": "CVC-low 20 mg/kg/day, week 9", "result": "48.5±16.1", "unit": "mg/g liver"}, {"measurement": "Liver weight", "setting": "CVC-low 20 mg/kg/day, week 9", "result": "1334 ± 99", "unit": "mg"}, {"measurement": "NAFLD Activity Score (NAS)", "setting": "CVC-low 20 mg/kg/day, week 9", "result": "4.0±0.6"}, {"measurement": "Oil red-positive area (fat deposition area)", "setting": "CVC-low 20 mg/kg/day, week 9", "result": "6.51±3.88", "unit": "%"}, {"measurement": "Plasma ALT", "setting": "CVC-low 20 mg/kg/day, week 9", "result": "58±12", "unit": "U/L"}, {"measurement": "Plasma MCP-1", "setting": "CVC-low 20 mg/kg/day, week 9", "result": "68 ± 16", "unit": "pg/mL"}, {"measurement": "Plasma MIP-1β", "setting": "CVC-low 20 mg/kg/day, week 9", "result": "18 ± 2", "unit": "pg/mL"}, {"measurement": "TUNEL-positive cells", "setting": "CVC-low 20 mg/kg/day, week 9", "result": "43.3±2.9", "unit": "%"}, {"measurement": "Whole blood glucose", "setting": "CVC-low 20 mg/kg/day, week 9", "result": "585 ± 91", "unit": "mg/dL"}]}
